In publication PMC12372887, “Mechanism and cellular actions of the potent AMPK inhibitor BAY-3827” (Science Advances, 2025):
Where “and” joins values, the source holds several entries; their conditions need not be identical. Identical values can stand only once.

System: AMPKα1α2+/+ (control) primary hepatocytes
Assay: RNA-seq transcriptome analysis of primary hepatocytes
Type: cell-based, mouse
Protocol: Primary hepatocytes were pretreated for 15 min with BAY-3827 5 μM at 37°C in MEM-199 supplemented with penicillin G (100 U/ml), streptomycin ([…]), and 100 nM dexamethasone followed by addition of MK-8722 10 μM treatment. Six hours posttreatment, the cells were washed twice with room-temperature PBS. RNA was isolated using QIAwave RNAeasy kit (catalog no. 74104) with on-column deoxyribonuclease (DNAse) treatment using Qiagen RNase-free DNase set (catalog no. 79256) following the manufacturer’s protocol. Messenger RNA-seq was performed by the Single-Cell Omics platform at the Novo Nordisk Foundation Center for Basic Metabolic Research. Libraries were prepared using the Universal Plus mRNA-seq protocol (Tecan) as recommended by the manufacturer. Libraries were quantified with NuQuant using the CLARIOstar Plate Reader (BMG Labtech), quality checked using a TapeStation instrument (Agilent Technologies), and subjected to 52–base pair paired-end sequencing on a NovaSeq 6000 (Illumina). The sequencing analysis pipeline nf-core ([69]) was used, with alignment and quantification selection of STAR and Salmon, and mouse GRCm38 set as the reference genome. Unique molecular identifier (UMI)-based deduplication was performed using UMI tools, and sorting and index alignments were completed with SAMtools as part of the pipeline. Differential expression analysis was carried out using the R package edgeR ([70]) and a batch-effect removal was performed in limma ([71]) to account for the variability induced by two mice (291 + 295) from which cells with the same treatments had been pooled to obtain the required cell confluence. Venn diagrams were produced using the R package ggvenn ([72]). […] Heatmaps of log2 counts per million normalized counts were produced using R package pheatmap ([73]). GO enrichment analysis was performed using the R package clusterProfiler version 4.6.2 ([74]) setting FDR < 0.05 with reference organism specified as mouse, pAdjustMethod was set to BH, and ontology category set to biological process, with a qvalueCutoff of 0.05. Visualization analyses were conducted in RStudio version 4.2.0 ([75]).

CCc1ccccc1C(=O)Nc1n[nH]c2c(C)c(F)c(C3C(C#N)=C(C)N(C)C(C)=C3C#N)cc12 [BAY-3827, N-[5-(3,5-dicyano-1,2,6-trimethyl-4H-pyridin-4-yl)-6-fluoro-7-methyl-1H-indazol-3-yl]-2-ethylbenzamide]
LogFC ADORA2B (5 μM + MK-8722 versus MK-8722): −1.3062 | LogFC AVPR1A (5 μM + MK-8722 versus MK-8722): −1.708 | LogFC EHHADH (5 μM + MK-8722 versus MK-8722): −1.5955 | LogFC HAL (5 μM + MK-8722 versus MK-8722): −1.348 | LogFC HMGCR (5 μM + MK-8722 versus MK-8722): −0.1621 | LogFC HPGD (5 μM + MK-8722 versus MK-8722): −1.745 | LogFC LIPE (5 μM + MK-8722 versus MK-8722): −0.2816 | LogFC LPIN2 (5 μM + MK-8722 versus MK-8722): −0.5277 | LogFC PFKFB2 (5 μM + MK-8722 versus MK-8722): −0.5421 | LogFC PLIN5 (5 μM + MK-8722 versus MK-8722): −1.3 | LogFC SP1 (5 μM + MK-8722 versus MK-8722): −0.4397 | LogFC TBC1D15 (5 μM + MK-8722 versus MK-8722): −0.4895 | LogFC TBC1D17 (5 μM + MK-8722 versus MK-8722): −0.5598 | MK-8722–stimulated AMPK-dependent genes down-regulated (5 μM + MK-8722 versus MK-8722): ~ 30% and 30.1% | logFC CALCOCO1 (RSK2 gene) (5 μM + MK-8722 versus MK-8722): -0.7893 | logFC CENPE (RSK1 gene) (5 μM + MK-8722 versus MK-8722): -1.28 | logFC CENPI (RSK1 gene) (5 μM + MK-8722 versus MK-8722): -0.6534 | logFC CENPW (RSK1 gene) (5 μM + MK-8722 versus MK-8722): -0.4735 | logFC DSN1 (RSK1 gene) (5 μM + MK-8722 versus MK-8722): -0.789 | logFC FN1 (RSK1 gene) (5 μM + MK-8722 versus MK-8722): -0.2178 | logFC MASTL (RSK1 gene) (5 μM + MK-8722 versus MK-8722): -0.8494 | logFC NEK2 (RSK1 gene) (5 μM + MK-8722 versus MK-8722): -1.199 | logFC SPC25 (RSK1 gene) (5 μM + MK-8722 versus MK-8722): -0.6826 | logFC STAT5B (5 μM + MK-8722 versus MK-8722): -0.6006 | differentially expressed genes that are down-regulated (5 μM + MK-8722 versus MK-8722, 2511 significant genes): 61.2% | PPARGC1A gene counts (5 μM + MK-8722 versus MK-8722 alone): significantly reduced
